Experimental data taken from US20200190507A1, “Encoded Solid Phase Compound Library with Polynucleotide Based Barcoding” (The Scripps Research Institute, priority 2016, published 2020).
Entries after “also recorded” stand apart in the source; their conditions may differ.

Test system: ATB serum IgGs
Assay: Antigen competition binding analysis with beads displaying 2-B
Set-up: species or system human
Conditions: pooled ATB serum, beads displaying 2-B; CFP 250 μg/mL

recombinant Ag85A: Mycobacterium tuberculosis recombinant protein reference standard Ag85A, NR-49427
competition with 2-B for binding ATB serum IgGs: unreactive; also recorded: did not compete

Ag85A: Mycobacterium tuberculosis purified native protein Ag85A (Rv3804c), Strain H37Rv
competition with 2-B for binding ATB serum IgGs: competed; also recorded: compete strongly
